Test results as given in ChEMBL document CHEMBL1157741, “Synthesis and antituberculosis activity of novel mefloquine-isoxazole carboxylic esters as prodrugs” (Bioorg Med Chem Lett, 2010).
Values after ≈ are worked out from the molar mass of the structure shown.

Tests used:
[1] = Selectivity index, ratio of IC50 for african green monkey Vero cells to MIC for Mycobacterium tuberculosis H37Rv by low oxygen recovery assay; type: functional
[2] = system: Vero; experiment: Cytotoxicity against african green monkey Vero cells after 72 hrs; type: cell-based; conditions: Chlorocebus sabaeus
[3] = system: Mycobacterium tuberculosis; experiment: Antitubercular activity against Mycobacterium tuberculosis H37Rv after 28 hrs by low oxygen recovery assay; type: functional
[4] = Selectivity index, ratio of IC50 for african green monkey Vero cells to MIC for Mycobacterium tuberculosis H37Rv by microplate alamar blue assay; type: functional
[5] = system: Mycobacterium tuberculosis; experiment: Antitubercular activity against Mycobacterium tuberculosis H37Rv after 72 hrs by microplate alamar blue assay; type: functional
[6] = system: Escherichia coli; experiment: Antimicrobial activity against Escherichia coli; type: functional
[7] = system: Staphylococcus aureus; experiment: Antimicrobial activity against Staphylococcus aureus; type: functional
[8] = system: Mycobacterium tuberculosis; experiment: Antimicrobial activity against Mycobacterium tuberculosis Erdman; type: functional
[9] = system: Candida albicans; experiment: Antimicrobial activity against Candida albicans; type: functional
[10] = system: Mycobacterium tuberculosis; experiment: Antitubercular activity against Mycobacterium tuberculosis H37Rv at pH 6.8 by microplate alamar blue assay relative to control; type: functional
[11] = Toxicity in po dosed BALB/c mouse assessed as maximum tolerated dose treated for 5 days; type: organism-based; conditions: in vivo
[12] = system: Bacillus anthracis; experiment: Antimicrobial activity against Bacillus anthracis; type: functional
[13] = system: Mycobacterium tuberculosis; experiment: Antitubercular activity against Mycobacterium tuberculosis H37Rv at pH 6 by microplate alamar blue assay; type: functional
[14] = system: Mycobacterium tuberculosis; experiment: Antitubercular activity against Mycobacterium tuberculosis H37Rv at pH 6.8 by microplate alamar blue assay; type: functional
[15] = system: Mycolicibacterium smegmatis; experiment: Antimicrobial activity against Mycobacterium smegmatis; type: functional
[16] = system: Mycobacterium tuberculosis; experiment: Antitubercular activity against Mycobacterium tuberculosis Erdman infected in mouse J774A.1 cells; type: functional
[17] = Inhibition of CYP; type: ADME

SMILES	Selectivity Index [1]	IC50 [2] [µM]	MIC [3] [µM]	Selectivity Index [4]	MIC [5] [µM]	other results
CCOC(=O)c1cc(COc2ccc3cc[nH]c3c2)on1	>2.9	> 128	42.9 (≈ 12.3 µg/mL)	>14.9	8.6 (≈ 2.46 µg/mL)	
CCN(CC)C(=O)c1cc(COc2cc(C(F)(F)F)nc3c(C(F)(F)F)cccc23)on1		46.5	> 128		> 128	
O=C(O)c1cc(COc2cc(C(F)(F)F)nc3c(C(F)(F)F)cccc23)on1						MIC [6]: > 128 µM; MIC [7]: 22 µM (≈ 8.94 µg/mL); MIC [8]: > 128 µM; MIC [9]: > 128 µM; Activity [10]: 89%; MTD at 120 h [11]: 400 mg/kg; MIC [12]: 32 µM (≈ 13 µg/mL); MIC [13]: 7.7 µM (≈ 3.13 µg/mL); MIC [14]: > 128 µM; MIC [15]: > 128 µM
CCOC(=O)c1cc(COc2cccc3ncccc23)on1	>4.1	> 128	31.1 (≈ 9.28 µg/mL)	>3.6	35.1 (≈ 10.5 µg/mL)	
NNC(=O)c1ccncc1 [ISONIAZID]						MIC [13]: 0.1 µM (≈ 0.0137 µg/mL); MIC [14]: 0.1 µM (≈ 0.0137 µg/mL)
O=C(OCCC(F)(F)F)c1cc(COc2cc(C(F)(F)F)nc3c(C(F)(F)F)cccc23)on1	>4.3	> 128	29.9 (≈ 15 µg/mL)	>5.1	25 (≈ 12.6 µg/mL)	
CCOC(=O)c1cc(COc2cc(C(F)(F)F)c3nc(C(F)(F)F)cc(OCc4cc(C(=O)OCC)no4)c3c2)on1	>8.2	> 128	15.6 (≈ 9.41 µg/mL)	>7.3	17.6 (≈ 10.6 µg/mL)	
OC(c1cc(C(F)(F)F)nc2c(C(F)(F)F)cccc12)C1CCCCN1 (configuration not stated) [MEFLOQUINE]	1.6		7 (≈ 2.65 µg/mL)	0.9	13 (≈ 4.92 µg/mL)	
CCCCCCOC(=O)c1cc(COc2cc(C(F)(F)F)nc3c(C(F)(F)F)cccc23)on1	>4.8	> 128	26.7 (≈ 13.1 µg/mL)	>8.4	15.3 (≈ 7.5 µg/mL)	
CCCOC(=O)c1cc(COc2cc(C(F)(F)F)nc3c(C(F)(F)F)cccc23)on1	>4.9	> 128	26.1 (≈ 11.7 µg/mL)	>71.2	1.8 (≈ 0.807 µg/mL)	
CCOC(=O)c1cc(COc2ccc3cccnc3c2)on1	>2.7	108	40.3 (≈ 12 µg/mL)	>9.9	10.8 (≈ 3.22 µg/mL)	
CCOC(=O)c1cc(COc2cc(C(F)(F)F)nc3c(C(F)(F)F)cccc23)on1	>10.5	> 128	12.1 (≈ 5.25 µg/mL)	>142.2	0.9 (≈ 0.391 µg/mL)	MIC [6]: > 128 µM; MIC [7]: > 128 µM; MIC [8]: 1.74 µM (≈ 0.756 µg/mL); MIC [9]: > 128 µM; EC90 [16]: 4.1 µM; EC99 [16]: 18.3 µM; inhibition (INH) [17]: Not Active; MIC [12]: > 128 µM; MIC [13]: 0.1 µM (≈ 0.0434 µg/mL); MIC [14]: 0.9 µM (≈ 0.391 µg/mL); MIC [15]: > 128 µM
NC(=O)c1cc(COc2cc(C(F)(F)F)nc3c(C(F)(F)F)cccc23)on1		> 128	> 128		> 128	
CCOC(=O)c1cc(COc2ccc3ncccc3c2)on1	>10	> 128	12.8 (≈ 3.82 µg/mL)	>17.3	7.4 (≈ 2.21 µg/mL)	
CCOC(=O)c1cc(COc2ccc3ccc(C(F)(F)F)nc3c2)on1	>5.9	> 128	21.6 (≈ 7.91 µg/mL)	>25.6	3.6 (≈ 1.32 µg/mL)	
CCOC(=O)c1cc(COc2ccc([N+](=O)[O-])c(C(F)(F)F)c2)on1	>2.1	> 128	62.2 (≈ 22.4 µg/mL)	>36.6	3.5 (≈ 1.26 µg/mL)	
O=C(c1cc(COc2cc(C(F)(F)F)nc3c(C(F)(F)F)cccc23)on1)N1CCCCO1		> 128	> 128		> 128	
CO[C@H]1/C=C/O[C@@]2(C)Oc3c(C)c(O)c4c(O)c(c(/C=N/N5CCN(C)CC5)c(O)c4c3C2=O)NC(=O)/C(C)=C\C=C\[C@H](C)[C@H](O)[C@@H](C)[C@@H](O)[C@@H](C)[C@H](OC(C)=O)[C@@H]1C [RIFAMPIN]			2 (≈ 1.65 µg/mL)		0.1 (≈ 0.0823 µg/mL)	MIC [14]: 0.1 µM (≈ 0.0823 µg/mL)
OCc1cc(COc2cc(C(F)(F)F)nc3c(C(F)(F)F)cccc23)on1		> 128	> 128		> 128	
O=C(OCc1ccccc1)c1cc(COc2cc(C(F)(F)F)nc3c(C(F)(F)F)cccc23)on1	>2.5	> 128	50.7 (≈ 25.2 µg/mL)	>4.8	26.5 (≈ 13.2 µg/mL)	
NNC(=O)c1cc(COc2cc(C(F)(F)F)nc3c(C(F)(F)F)cccc23)on1		> 128	> 128		> 128	
CC(=O)OCc1cc(COc2cc(C(F)(F)F)nc3c(C(F)(F)F)cccc23)on1		> 128	> 128		> 128	
NC(=O)c1cnccn1 [PYRAZINAMIDE]						MIC [13]: 829 µM (≈ 102 µg/mL); MIC [14]: > 4000 µM
CCCCOC(=O)c1cc(COc2cc(C(F)(F)F)nc3c(C(F)(F)F)cccc23)on1	>10.6	106	9.9 (≈ 4.58 µg/mL)	>109.1	0.9 (≈ 0.416 µg/mL)	
CCOC(=O)c1cc(COc2ccnc3ccccc23)on1		> 128	11.3 (≈ 3.37 µg/mL)	>5.1	25.1 (≈ 7.49 µg/mL)	
CCOC(=O)c1cc(COc2ccc3ccccc3n2)on1	>2	> 128	64 (≈ 19.1 µg/mL)	>1.2	103 (≈ 30.8 µg/mL)	
CCOC(=O)c1cc(COc2cccc3cccnc23)on1	>1	> 128	125 (≈ 37.3 µg/mL)	>3.2	39.8 (≈ 11.9 µg/mL)	
CCc1noc(-c2cc(COc3cc(C(F)(F)F)nc4c(C(F)(F)F)cccc34)on2)n1		> 128	> 128		> 128	
